Broadly, the IC50 is the midpoint of a concentration-inhibition curve. For orientation: solubility means the dissolved amount per volume that the medium holds. Low values mean little dissolved substance, high ones much dissolved substance. Broadly, the half-life is the time in which the quantity being followed falls by half. A low value points to fast loss. Broadly, the microsomal CLint is a measure of how fast metabolising enzymes remove a compound, apart from limits set by blood flow.

The source of these data is publication PMC9671780 (Bioorganic Chemistry, 2022).

In brackets after ≈: the same amount, converted by molar mass.

One series is described as follows: in vitro. Particulars: African green monkey, Vero E6 Cytotoxicity (IC50), MTT.
The target of another series is SARS-CoV-2 M^pro (Severe acute respiratory syndrome coronavirus 2, UniProt P0DTD1). Put plainly: biochemical. Particulars: for IC50: IC50 against SARS-CoV-2 M^pro, Table 1 and text.
For another series, the system named is SARS-CoV-2. The series is classed as cell-based. Particulars: for Antiviral Potency Index (API): ratio of % inhibition to that of remdesivir at 10 µM; for SARS-CoV-2 Antiviral Assay (%) inhibition of viral replication: 10 µM.
The next series concerns Vero E6 cells. Particulars: for IC50: read-out: Vero E6 Cytotoxicity (IC50), MTT.
Another series can be described thus: PBS solubility screening. The format is physicochemical. Conditions: for Solubility note: PBS; for solubility: phosphate-buffered saline, aqueous buffer, kinetic from dmso stock.
A short description of series [1]: Enzymatic metabolic stability. The series is classed as in vitro ADME.
The test system of a further series is TNF-α. Kind of series: Carrageenan-induced paw edema in rats: serum TNF-α. The series is classed as in vivo, Sprague Dawley Rat. Particulars: male rats, 100 mg/kg, 6 h after carrageenan. (The carrageenan paw model is a standard test of acute inflammation.)
Another series concerns IL-6. Put plainly: Carrageenan-induced paw edema in rats: serum IL-6. The series is classed as in vivo, Sprague Dawley Rat. Particulars: male rats, 100 mg/kg, 6 h after carrageenan.

Regarding `Cc1nn(-c2ccc(Cl)cc2)c2c1C(c1cc(Cl)ccc1Cl)C(C#N)=C(N)O2` (stereo not drawn) [Compound 28, 6-Amino-1-(4-chlorophenyl)-4-(2,5-dichlorophenyl)-3-methyl-1,4-dihydropyrano[2,3-c]pyrazole-5-carbonitrile], the IC50 in the series “in vitro” amounted to 131 ± 10 µM.

As for `COc1ccc(C2C(C#N)=C(N)Oc3c2c(C)nn3-c2ccc(Cl)cc2)cc1` (stereo not drawn) [Compound 21, 6-Amino-1-(4-chlorophenyl)-4-(4-methoxyphenyl)-3-methyl-1,4-dihydropyrano[2,3-c]pyrazole-5-carbonitrile], the 50% inhibitory concentration (IC50) came out at 24.6 ± 1.2 µM at SARS-CoV-2 M^pro and 78.1 ± 5.9 µM in “in vitro”. The “Antiviral Potency Index (API)” value in the series on SARS-CoV-2 amounted to 0.49.

For the compound `Cc1nn(-c2ccc(Cl)cc2)c2c1C(c1ccc(I)cc1)C(C#N)=C(N)O2` (stereo not drawn) [Compound 20, 6-Amino-1-(4-chlorophenyl)-4-(4-iodophenyl)-3-methyl-1,4-dihydropyrano[2,3-c]pyrazole-5-carbonitrile], the results for the 50% inhibitory concentration (IC50) at SARS-CoV-2 M^pro and in the series “in vitro” were 69.1 ± 3.5 µM and 103 ± 7.8 µM, respectively. For the same compound, the “Antiviral Potency Index (API)” value in the series with SARS-CoV-2 was found to be 0.62.

Regarding `Cc1nn(-c2ccc(Cl)cc2)c2c1C(c1ccc(O)cc1)C(C#N)=C(N)O2` (stereo not drawn) [Compound 22, 6-Amino-1-(4-chlorophenyl)-4-(4-hydroxyphenyl)-3-methyl-1,4-dihydropyrano[2,3-c]pyrazole-5-carbonitrile], the “Mode of binding from kinetic analysis” value at SARS-CoV-2 M^pro is “reversibly and non-competitively with non-covalent interactions”. Further, the figures for the IC50 in the series on Vero E6 cells and in “in vitro” were 67.7 ± 5.2 µM and over 60 µM, respectively.

As to `CO[C@H]1/C=C/O[C@@]2(C)Oc3c(C)c(O)c4c(O)c(c(/C=N/N5CCN(C)CC5)c(O)c4c3C2=O)NC(=O)/C(C)=C\C=C\[C@H](C)[C@H](O)[C@@H](C)[C@@H](O)[C@@H](C)[C@H](OC(C)=O)[C@@H]1C` [Rifampicin, reference compound], in the series “PBS solubility screening”, the Solubility note result is given as “Reference with good solubility” and the concentration in solution (solubility) came to 179 µM (≈ 148 µg/mL).

As for `COc1cc(C2C(C#N)=C(N)Oc3c2c(C)nn3-c2ccc(Cl)cc2)cc(OC)c1OC` (stereo not drawn) [Compound 33, 6-Amino-1-(4-chlorophenyl)-4-(3,4,5-trimethoxyphenyl)-3-methyl-1,4-dihydropyrano[2,3-c]pyrazole-5-carbonitrile], the IC50 is 22.1 ± 1.1 µM against SARS-CoV-2 M^pro and 86.2 ± 6.6 µM in the series “in vitro”. For the same compound, the “Antiviral Potency Index (API)” value in the series on SARS-CoV-2 amounted to 0.83.

Take `Cc1nn(-c2ccc(Cl)cc2)c2c1C(c1c(Cl)cccc1Cl)C(C#N)=C(N)O2` (stereo not drawn) [Compound 29, 6-Amino-1-(4-chlorophenyl)-4-(2,6-dichlorophenyl)-3-methyl-1,4-dihydropyrano[2,3-c]pyrazole-5-carbonitrile]: the half-inhibitory concentration (IC50) came out at 44.6 µM against SARS-CoV-2 M^pro and 63.3 ± 4.8 µM in “in vitro”. Also, the “Antiviral Potency Index (API)” value in the series with SARS-CoV-2 was determined as 0.50.

Take `Cc1nn(-c2ccc(Cl)cc2)c2c1C(c1ccc(F)cc1F)C(C#N)=C(N)O2` (stereo not drawn) [Compound 25, 6-Amino-1-(4-chlorophenyl)-4-(2,4-difluorophenyl)-3-methyl-1,4-dihydropyrano[2,3-c]pyrazole-5-carbonitrile]: the figures for the IC50 against SARS-CoV-2 M^pro and in “in vitro” were 192 ± 9.8 µM and 47.6 ± 3.6 µM, respectively. In the series with SARS-CoV-2, the “Antiviral Potency Index (API)” value is 0.52.

With `CCOc1ccc(C2C(C#N)=C(N)Oc3c2c(C)nn3-c2ccc(Cl)cc2)cc1` (stereo not drawn) [Compound 31, 6-Amino-1-(4-chlorophenyl)-4-(4-ethoxyphenyl)-3-methyl-1,4-dihydropyrano[2,3-c]pyrazole-5-carbonitrile], the IC50 on SARS-CoV-2 M^pro was 4.6 ± 0.25 µM; in “in vitro”, 18.1 ± 1.4 µM. The “Antiviral Potency Index (API)” value in the series on SARS-CoV-2 worked out at 0.81.

In the case of `Cc1nn(-c2ccc(Cl)cc2)c2c1C(c1ccc(Cl)c(Cl)c1)C(C#N)=C(N)O2` (stereo not drawn) [Compound 30, 6-Amino-1-(4-chlorophenyl)-4-(3,4-dichlorophenyl)-3-methyl-1,4-dihydropyrano[2,3-c]pyrazole-5-carbonitrile], in the series with SARS-CoV-2, the “SARS-CoV-2 Antiviral Assay (%) inhibition of viral replication” value was 27.84 ± 0.14% and the “Antiviral Potency Index (API)” value is given as 0.30. Further, in the series “in vitro”, the concentration for half-maximal inhibition (IC50) was 66.5 ± 5.1 µM.

Consider `CCC(CC)COC(=O)[C@H](C)N[P@](=O)(OC[C@H]1O[C@@](C#N)(c2ccc3c(N)ncnn23)[C@H](O)[C@@H]1O)Oc1ccccc1` [Remdesivir, reference compound], for which, in the series on Vero E6 cells (at 60 μM), the “Cytotoxicity to Vero E6 cells” value is listed as “no cytotoxicity”. In “in vitro”, this compound returned a concentration for half-maximal inhibition (IC50) of 61.8 ± 4.7 µM.

With `Cc1nn(-c2ccc(Cl)cc2)c2c1C(c1ccc([N+](=O)[O-])cc1)C(C#N)=C(N)O2` (stereo not drawn) [Compound 23, 6-Amino-1-(4-chlorophenyl)-4-(4-nitrophenyl)-3-methyl-1,4-dihydropyrano[2,3-c]pyrazole-5-carbonitrile], the IC50 against SARS-CoV-2 M^pro was determined as 9.5 ± 0.51 µM; in “in vitro” it was 113 ± 8.6 µM. Also, the “Antiviral Potency Index (API)” value in the series with SARS-CoV-2 turned out to be 0.64.

For `Cc1nn(-c2ccc(Cl)cc2)c2c1C(c1ccc(Cl)cc1)C(C#N)=C(N)O2` (stereo not drawn) [Compound 18, 6-Amino-1-(4-chlorophenyl)-4-(4-chlorophenyl)-3-methyl-1,4-dihydropyrano[2,3-c]pyrazole-5-carbonitrile], the IC50 against SARS-CoV-2 M^pro amounted to 12.8 ± 0.6 µM; in “in vitro”, 60.5 ± 4.6 µM. Further, the “Antiviral Potency Index (API)” value in the series with SARS-CoV-2 was found to be 0.74.

`CC(C)NCC(O)COc1cccc2ccccc12` (stereo not drawn) [Propranolol, reference compound]: the half-life in series [1] (Mean t1/2) worked out at 2.4 h.

As for `Cc1nn(-c2ccc(Cl)cc2)c2c1C(c1ccc(Cl)cc1Cl)C(C#N)=C(N)O2` (stereo not drawn) [Compound 27, 6-Amino-1-(4-chlorophenyl)-4-(2,4-dichlorophenyl)-3-methyl-1,4-dihydropyrano[2,3-c]pyrazole-5-carbonitrile], the “Mode of binding from kinetic analysis” value at SARS-CoV-2 M^pro is “reversibly and non-competitively with non-covalent interactions”. Further, in the series with SARS-CoV-2, the “SARS-CoV-2 Antiviral Assay (%) inhibition of viral replication” value is 91.23 ± 0.25% and the “Antiviral Potency Index (API)” value is listed as 0.98. In addition, in the series with TNF-α, the “Serum level of TNF-α” value turned out to be 385 pg/mL. The “Serum level of IL-6” value in the series with IL-6 came out at 64 pg/mL. In addition, in the series “PBS solubility screening”, the Solubility note entry was “Moderate aqueous solubility” and the solubility is 22.4 µM (≈ 9.67 µg/mL). Moreover, in series [1], the Metabolic rate result is listed as “intermediate clearance rate” and the microsomal CLint stood at 54.6 µL/min/mg. The half-life in series [1] (Intrinsic half-life (t1/2)) was over 2 h. This compound showed a half-life in series [1] (Mean t1/2) of 2.23 h. Further, the IC50 in the series on Vero E6 cells was 62 ± 4.7 µM. The compound also displayed an IC50 in “in vitro” of over 60 µM.

For `Cc1nn(-c2ccc(Cl)cc2)c2c1C(c1ccc(Br)cc1)C(C#N)=C(N)O2` (stereo not drawn) [Compound 19, 6-Amino-4-(4-bromophenyl)-1-(4-chlorophenyl)-3-methyl-1,4-dihydropyrano[2,3-c]pyrazole-5-carbonitrile], the IC50 against SARS-CoV-2 M^pro turned out to be 30.9 ± 1.6 µM; in “in vitro”, 26.2 ± 20 µM. The “Antiviral Potency Index (API)” value in the series on SARS-CoV-2 is recorded as 0.45.

In the case of `Cc1nn(-c2ccc(Cl)cc2)c2c1C(c1ccc(-c3ccccc3)cc1)C(C#N)=C(N)O2` (stereo not drawn) [Compound 24, 4-([1,1′-Biphenyl]-4-yl)-6-amino-1-(4-chlorophenyl)-3-methyl-1,4-dihydropyrano[2,3-c]pyrazole-5-carbonitrile], the IC50 came out at 39.8 ± 2.2 µM on SARS-CoV-2 M^pro and 60.7 ± 4.6 µM in the series “in vitro”. Besides, the “Antiviral Potency Index (API)” value in the series with SARS-CoV-2 came out at 0.54.

For `COc1cc(C2C(C#N)=C(N)Oc3c2c(C)nn3-c2ccc(Cl)cc2)ccc1O` (stereo not drawn) [Compound 32, 6-Amino-1-(4-chlorophenyl)-4-(4-hydroxy-3-methoxyphenyl)-3-methyl-1,4-dihydropyrano[2,3-c]pyrazole-5-carbonitrile], in the series “in vitro”, the half-maximal inhibitory concentration (IC50) was determined as 45.7 ± 3.5 µM.

On to `Cc1nn(-c2ccc(Cl)cc2)c2c1C(c1cccc(Cl)c1Cl)C(C#N)=C(N)O2` (stereo not drawn) [Compound 26, 6-Amino-1-(4-chlorophenyl)-4-(2,3-dichlorophenyl)-3-methyl-1,4-dihydropyrano[2,3-c]pyrazole-5-carbonitrile], for which half-maximal inhibition in “in vitro” (IC50) required 34.8 ± 2.7 µM.
